Consider one compound from patent US8394404B2, “Adhesive material and adhesive preparation” (Nitto Denko Corporation, priority 2004, dated 2013).

The series is described as follows: in vitro permeability test using the skin removed from a mouse. The class given is in vitro ADME. The following applies: adhesive preparation of the adhesive material of Example 3 with adhesive layer containing 5% ISDN. Here is the method: Thus, the adhesive preparation of the present invention is useful as a percutaneously absorbable adhesive preparation for continuous administration of a drug into the body.
An adhesive preparation comprising the adhesive material of the above-mentioned Example 3, which has an adhesive layer containing 5% isosorbide dinitrate (ISDN) was prepared and subjected to an in vitro permeability test using the skin removed from a mouse.

SMILES strings stand for the structures. “Also recorded” adds a separate entry of the source.

For `O=[N+]([O-])O[C@H]1CO[C@H]2[C@@H]1OC[C@H]2O[N+](=O)[O-]` [ISDN, isosorbide dinitrate], the “percutaneous absorption of ISDN” value is on record as “percutaneous absorbability of ISDN was confirmed; also recorded: percutaneous absorption of ISDN was confirmed”.
